What was measured:
FTH ferritin = target: T1, FTH ferritin (Homo sapiens, UniProt P02794); test: one-step process incorporation of small molecule agents into FTH ferritin; assay type: physicochemical; conditions: for Incorporation efficiency (wt %) / Number of agent incorporated: 60 min; for Optimal pH in reaction: pH of buffer giving the largest amount of incorporation within ferritin
T1 construct: made in house; host or cells: Escherichia coli BL21 (DE3), plasmid pET20-FTH
Procedure: All of the reactions were performed in 0.1 mL volume. […] The absorbances were measured using spectrophotometer (DU-800, Beckman Coulter Inc.) for these solutions, and the concentration of contained protein was determined using the protein assay CBB solution (Nacalai Tesque, Inc.) as well as bovine albumin as a standard. Absorbances at 280 nm and 480 nm were measured for Rhodamine B and Congo Red. […] Then, after the absorbances were calibrated based on the absorbances that were derived from the proteins and presumed by the amount of contained protein quantified using the protein assay CBB solution, the concentrations of small molecule agents were determined based on the calibration curves obtained by the absorbances of the molecules. […] As a result, the one-step process enabled incorporating also the small molecule agents with different physical properties such as molecular weight and pKa simply and easily.

[1] = single or first pKa value; cited from earlier work
[2] = cited from earlier work

T1 sequence (P02794 whole entry): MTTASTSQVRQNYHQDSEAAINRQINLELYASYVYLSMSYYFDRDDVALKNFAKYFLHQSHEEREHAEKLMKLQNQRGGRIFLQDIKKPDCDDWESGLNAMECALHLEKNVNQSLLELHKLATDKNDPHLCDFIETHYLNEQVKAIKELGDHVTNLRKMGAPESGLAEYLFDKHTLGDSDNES

Nc1c(/N=N/c2ccc(-c3ccc(/N=N/c4cc(S(=O)(=O)[O-])c5ccccc5c4N)cc3)cc2)cc(S(=O)(=O)[O-])c2ccccc12.[Na+].[Na+] [Congo Red]
Incorporation efficiency (wt %) (FTH ferritin; pH 3, 25° C.): 0.0 wt %
Number of agent incorporated (FTH ferritin; pH 3, 25° C.): 0.2
Incorporation efficiency (wt %) (FTH ferritin; pH 4, 25° C.): 0.5 wt %
Number of agent incorporated (FTH ferritin; pH 4, 25° C.): 3.7
Incorporation efficiency (wt %) (FTH ferritin; pH 5, 25° C.): 0.1 wt %
Number of agent incorporated (FTH ferritin; pH 5, 25° C.): 1.0
Incorporation efficiency (wt %) (FTH ferritin; pH 6, 10° C.): 0.2 wt %
Number of agent incorporated (FTH ferritin; pH 6, 10° C.): 1.4
Incorporation efficiency (wt %) (FTH ferritin; pH 6, 20° C.): 0.2 wt %
Number of agent incorporated (FTH ferritin; pH 6, 20° C.): 1.4
Incorporation efficiency (wt %) (FTH ferritin; pH 6, 25° C.): 0.1 wt %
Number of agent incorporated (FTH ferritin; pH 6, 25° C.): 0.9
Incorporation efficiency (wt %) (FTH ferritin; pH 6, 30° C.): 0.2 wt %
Number of agent incorporated (FTH ferritin; pH 6, 30° C.): 1.6
Incorporation efficiency (wt %) (FTH ferritin; pH 6, 40° C.): 0.2 wt %
Number of agent incorporated (FTH ferritin; pH 6, 40° C.): 1.7
Incorporation efficiency (wt %) (FTH ferritin; pH 6, 50° C.): 0.2 wt %
Number of agent incorporated (FTH ferritin; pH 6, 50° C.): 1.8
Incorporation efficiency (wt %) (FTH ferritin; pH 6, 60° C.): 0.4 wt %
Number of agent incorporated (FTH ferritin; pH 6, 60° C.): 2.8
Incorporation efficiency (wt %) (FTH ferritin; pH 7, 25° C.): 0.1 wt %
Number of agent incorporated (FTH ferritin; pH 7, 25° C.): 0.7
Incorporation efficiency (wt %) (FTH ferritin; pH 8, 25° C.): 0.1 wt %
Number of agent incorporated (FTH ferritin; pH 8, 25° C.): 0.8
Incorporation efficiency (wt %) (FTH ferritin; pH 9, 25° C.): 0.1 wt %
Number of agent incorporated (FTH ferritin; pH 9, 25° C.): 0.8
Optimal pH in reaction (FTH ferritin): 4
pKa [1]: 4.1
logP [2]: −1.88

CN1CC(=O)NC1=N [Creatinine]
Incorporation efficiency (wt %) (FTH ferritin; pH 4, 20° C.): 0.4 wt %
Number of agent incorporated (FTH ferritin; pH 4, 20° C.): 15.8
Incorporation efficiency (wt %) (FTH ferritin; pH 4, 60° C.): 0.5 wt %
Number of agent incorporated (FTH ferritin; pH 4, 60° C.): 24.8
Optimal pH in reaction (FTH ferritin): 4
pKa [1]: 2.96
logP [2]: −1.6

NC(N)=Nc1nc(CSCCC(N)=NS(N)(=O)=O)cs1 [Famotidine]
Number of agent incorporated (FTH ferritin; pH 4, 40° C.): 0.0
Number of agent incorporated (FTH ferritin; pH 6, 20° C.): 36.9
Number of agent incorporated (FTH ferritin; pH 6, 40° C.): 15.1
Number of agent incorporated (FTH ferritin; pH 6, 60° C.): 23.4
Number of agent incorporated (FTH ferritin; pH 8, 40° C.): 8.4
Number of agent incorporated (FTH ferritin; pH 10, 40° C.): 5.1
Optimal pH in reaction (FTH ferritin): 6
pKa [1]: 8.38

Nc1cc(N2CCCCC2)nc(N)[n+]1[O-] [Minoxidil]
Incorporation efficiency (wt %) (FTH ferritin; pH 4, 40° C.): 0.3 wt %
Number of agent incorporated (FTH ferritin; pH 4, 40° C.): 8.3
Incorporation efficiency (wt %) (FTH ferritin; pH 6, 20° C.): 2.6 wt %
Number of agent incorporated (FTH ferritin; pH 6, 20° C.): 65.6
Incorporation efficiency (wt %) (FTH ferritin; pH 6, 40° C.): 0.8 wt %
Number of agent incorporated (FTH ferritin; pH 6, 40° C.): 20.0
Incorporation efficiency (wt %) (FTH ferritin; pH 6, 60° C.): 0.5 wt %
Number of agent incorporated (FTH ferritin; pH 6, 60° C.): 12.0
Incorporation efficiency (wt %) (FTH ferritin; pH 8, 40° C.): 0.5 wt %
Number of agent incorporated (FTH ferritin; pH 8, 40° C.): 12.0
Incorporation efficiency (wt %) (FTH ferritin; pH 10, 40° C.): 0.2 wt %
Number of agent incorporated (FTH ferritin; pH 10, 40° C.): 4.3
Optimal pH in reaction (FTH ferritin): 6
pKa [1]: 4.61
logP [2]: 1.24

NC(=O)c1cccnc1 [Nicotinamide]
Incorporation efficiency (wt %) (FTH ferritin; pH 4, 40° C.): 0.4 wt %
Number of agent incorporated (FTH ferritin; pH 4, 40° C.): 15.6
Incorporation efficiency (wt %) (FTH ferritin; pH 6, 40° C.): 0.2 wt %
Number of agent incorporated (FTH ferritin; pH 6, 40° C.): 6.8
Incorporation efficiency (wt %) (FTH ferritin; pH 8, 40° C.): 0.3 wt %
Number of agent incorporated (FTH ferritin; pH 8, 40° C.): 13.9
Incorporation efficiency (wt %) (FTH ferritin; pH 10, 40° C.): 0.2 wt %
Number of agent incorporated (FTH ferritin; pH 10, 40° C.): 7.6
Optimal pH in reaction (FTH ferritin): 4
pKa [1]: 3.35
logP [2]: −0.37

Cc1cc2nc3c(=O)[nH]c(=O)nc-3n(C[C@H](O)[C@H](O)[C@H](O)CO)c2cc1C [Riboflavin]
Number of agent incorporated (FTH ferritin; pH 4, 40° C.): 6.4
Number of agent incorporated (FTH ferritin; pH 6, 40° C.): 6.5
Number of agent incorporated (FTH ferritin; pH 8, 40° C.): 6.4
Number of agent incorporated (FTH ferritin; pH 10, 40° C.): 7.7
Optimal pH in reaction (FTH ferritin): 10
pKa [1]: 10.2

Cc1ncc(C[n+]2csc(CCO)c2C)c(N)n1 [Thiamine]
Incorporation efficiency (wt %) (FTH ferritin; pH 4, 40° C.): 0.8 wt %
Number of agent incorporated (FTH ferritin; pH 4, 40° C.): 11.6
Incorporation efficiency (wt %) (FTH ferritin; pH 6, 40° C.): 0.9 wt %
Number of agent incorporated (FTH ferritin; pH 6, 40° C.): 13.9
Incorporation efficiency (wt %) (FTH ferritin; pH 8, 40° C.): 0.9 wt %
Number of agent incorporated (FTH ferritin; pH 8, 40° C.): 13.7
Incorporation efficiency (wt %) (FTH ferritin; pH 10, 40° C.): 0.9 wt %
Number of agent incorporated (FTH ferritin; pH 10, 40° C.): 13.6
Optimal pH in reaction (FTH ferritin): 6
pKa [1]: 5.5
logP [2]: −4.6

Rhodamine B
Incorporation efficiency (wt %) (FTH ferritin; pH 4, 60° C.): 0.4 wt %
Number of agent incorporated (FTH ferritin; pH 4, 60° C.): 4.3
Incorporation efficiency (wt %) (FTH ferritin; pH 5, 60° C.): 1.5 wt %
Number of agent incorporated (FTH ferritin; pH 5, 60° C.): 16.7
Incorporation efficiency (wt %) (FTH ferritin; pH 6, 60° C.): 0.3 wt %
Number of agent incorporated (FTH ferritin; pH 6, 60° C.): 3.5
Incorporation efficiency (wt %) (FTH ferritin; pH 7, 60° C.): 0.2 wt %
Number of agent incorporated (FTH ferritin; pH 7, 60° C.): 2.3
Incorporation efficiency (wt %) (FTH ferritin; pH 8, 20° C.): 1.0 wt %
Number of agent incorporated (FTH ferritin; pH 8, 20° C.): 11.1
Incorporation efficiency (wt %) (FTH ferritin; pH 8, 60° C.): 0.2 wt %
Number of agent incorporated (FTH ferritin; pH 8, 60° C.): 1.8
Incorporation efficiency (wt %) (FTH ferritin; pH 9, 30° C.): 0.7 wt %
Number of agent incorporated (FTH ferritin; pH 9, 30° C.): 7.6
Incorporation efficiency (wt %) (FTH ferritin; pH 9, 40° C.): 0.4 wt %
Number of agent incorporated (FTH ferritin; pH 9, 40° C.): 3.9
Incorporation efficiency (wt %) (FTH ferritin; pH 9, 50° C.): 0.2 wt %
Number of agent incorporated (FTH ferritin; pH 9, 50° C.): 2.6
Incorporation efficiency (wt %) (FTH ferritin; pH 9, 60° C.): 0.2 wt %
Number of agent incorporated (FTH ferritin; pH 9, 60° C.): 2.5
Incorporation efficiency (wt %) (FTH ferritin; pH 10, 40° C.): 0.3 wt %
Number of agent incorporated (FTH ferritin; pH 10, 40° C.): 3.2
Incorporation efficiency (wt %) (FTH ferritin; pH 10, 50° C.): 0.2 wt %
Number of agent incorporated (FTH ferritin; pH 10, 50° C.): 2.6
Incorporation efficiency (wt %) (FTH ferritin; pH 10, 60° C.): 0.6 wt %
Number of agent incorporated (FTH ferritin; pH 10, 60° C.): 6.6
Optimal pH in reaction (FTH ferritin): 5
pKa [1]: 3.1
logP [2]: 1.78

— patent US20210253651A1, “METHOD FOR PRODUCING ORGANIC COMPOUND-ENCAPSULATING FERRITIN” (Ajinomoto Co., Inc., priority 2018, published 2021)
